Columns and labels:
[1] = biological target: T1, HIV-1 RT resistant mutant K103N/Y181C (Human immunodeficiency virus type 1 group M subtype B, UniProt P04585, K690N/Y768C); experiment: Reverse transcriptase (RT) enzymatic assay (IC50), PicoGreen fluorescence, resistant mutant; type: biochemical
T1 construct: The reverse transcriptase (RT) enzyme assay has been adapted to a 96-well microtiter plate format
Experimental: (§1) Reverse Transcriptase (RT) Assays Enzymatic Assay (IC50)
The enzymatic assay employed is described as follows: The reverse transcriptase (RT) enzyme assay has been adapted to a 96-well microtiter plate format and uses PicoGreen™ as a fluorescent intercalator. More explicitly, the HIV-1 RT enzyme was thawed and appropriately diluted into Tris/HCl 50 mM pH 7.8 containing NaCl 60 mM, MgCl2∘6H2O 2 mM, DTT 6 mM, GSH 2 mM and 0.02% w/v Chaps to give ≈10 nM enzyme. To 10 μL of this enzyme solution was added 10 μL of inhibitor solution (40 μM to […] inhibitor in the same assay buffer as above containing 4% v/v DMSO). The plate was pre-incubated for 15 minutes at room temperature before proceeding to the next step. In this pre-incubation step, the highest and lowest inhibitor concentrations were 20 μM and 1.016 nM respectively and the concentration of DMSO was 2% v/v. Then the enzymatic reaction was initiated by addition of 20 μL of substrate solution. The final reaction mixture contained Tris/HCl 50 mM pH 7.8, NaCl 60 mM, MgCl2∘6H2O 2 mM, DTT 6 mM, GSH 2 mM, CHAPS 0.02% w/v, DMSO 1% v/v, poly rC 45 nM, dG15 4.5 nM, dGTP 3.6 μM, and ≈2.5 nM enzyme. In this incubation step, the highest and lowest inhibitor concentrations were 10 μM and 0.508 nM respectively. After addition of the substrate cocktail, the plate was covered with a plastic seal and incubated for 50 minutes at 37° C. in a dry incubator. The reaction was then quenched by addition of 5 μL of EDTA 0.5 M. The plate was shaken for 30 seconds at medium speed and incubated for 5 minutes at room temperature. Then 160 μL of PicoGreen™ 1:400 dilution from commercial stock (diluted in Tris 20 mM pH 7.5 with EDTA 1 mM) was added and the plate was shaken for 30 seconds and incubated for 10 minutes at room temperature. The plate was then analyzed using a POLARstar Galaxy fluorimeter (BMG Labtechnologies) with λex and λem of 485 nm and 520 nm respectively. […] Each row contained at its extremities a blank and a control well.
(§2) Table legend: A=>100; B=100-50; C=<50; NT=not tested

[2] = tested on: HIV-1 (wild type) in C8166 LTRluc cells; experiment: C8166 HIV-1 luciferase assay (EC50), wild type; type: cell-based; details: Human immunodeficiency virus 1, C8166 HIV-1 luciferase assay (no *)
Source text: (§3) C8166 HIV-1 Luciferase Assay (EC50)
(§4) Plasmid: pGL3 Basic LTR/TAR #12
Plasmid is the pGL3 Basic Vector (a promoterless luciferase expression vector from Promega catalogue #E1751) with the addition of HIV-1 H×B2 LTR sequence from nucleotide −138 to +80 (Sca1-HindIII) upstream of the luciferase gene and the gene for blasticidine resistance cloned in.
(§5) C8166 cells are a human T-lymphotrophic virus type 1 immortalized but nonexpressing line of cord blood lymphocytes and are highly permissive to HIV-1 infection. The reporter cells were made by electroporating C8166 cells with pGL3 Basic LTR/TAR and then selecting positive clones with blasticidine. The clone C8166-LTRluc #A8-F5-G7 was selected by 3 consecutive rounds of limiting dilution under blasticidine selection.
(§6) Media: Complete media consisting of: RPMI 1640+10% FBS+10^−5 M
(§7) β-mercaptoethanol+10 μg/ml gentamycin. Cultures are maintained in complete media with 5 μg/ml blasticidine, however, selection is removed for the assay.
(§8) Luciferase Assay Protocol
(§9) Serial dilutions of HIV-1 inhibitors compounds are prepared in complete media from 10 mM DMSO stock solutions. Eleven serial dilutions of 2.5× are made at 8× desired final concentration in a 1 ml deep well titer plate (96 wells). The 12th well contains complete media with no inhibitor and serves as the positive control. All samples contain the same concentration of DMSO (≦0.1% DMSO). A 25 μl aliquot of inhibitor is added, to triplicate wells, of a 96 well tissue culture treated clear view black microtiter plate (Corning Costar catalogue # 3904). The last row is reserved for uninfected C8166 LTRluc cells to serve as the background blank control and the first row is media alone.
(§10) Count C8166 LTRluc cells and place in a minimal volume of complete RPMI 1640 in a tissue culture flask (ex. 30×10^6 cells in 10 ml media/25 cm^2 flask). Infect cells with HIV-1 at a moi of 0.005. Incubate cells for 1.5 hours at 37° C. on a rotating rack in a 5% CO2 incubator. Resuspend cells in complete RPMI to give a final concentration of 25,000-cells/175 μl. Add 175 μl of cell mix to wells of 96 well microtiter plate containing 25 μl 8× inhibitors. Add 25,000 uninfected C8166-LTRluc cells/well in 200 μl complete RPMI to last row for background control. Incubate cells at 37° C. in 5% CO2 incubator for 3 days.
(§11) Add 50 μl Steady Glo (luciferase substrate T1/2=5 hours Promega catalogue # E2520) to each well of the 96 well plate. Determine the relative light units (RLU) of luciferase using the BMG LUMlstar Galaxy luminometer. Plates are read from the bottom for 2 seconds per well with a gain of 240.
(§12) The level of inhibition (% inhibition) of each well containing inhibitor was calculated with the following equation: […]
The calculated % inhibition values were then used to determine EC50, slope factor (n) and maximum inhibition (Imax) by the non-linear regression routine NLIN procedure of SAS using the following equation: […]
The results are listed in Table 9 as IC50(nM) and EC50 (nM).
as §2

[3] = tested on: HIV-1 resistant mutant K103N/Y181C in C8166 LTRluc cells; experiment: C8166 HIV-1 luciferase assay (EC50), resistant mutant; type: cell-based; details: Human immunodeficiency virus 1, C8166, read-out: EC50 K103N/Y181C
Source text: as §3, §4, §5, §6, §7, §8
as §9, with “Eleven” for “Serial dilutions of HIV-1 inhibitors compounds are prepared in complete media from 10 mM DMSO stock solutions. Eleven”
as §10, with “Infect cells with HIV-1 at a moi of 0.005.” left out
as §11, §12
The calculated % inhibition values were then used to determine EC50, slope factor (n) and maximum inhibition (Imax) by the non-linear regression routine NLIN procedure of SAS using the following equation:
as §2

[4] = biological target: T2, HIV-1 RT enzyme (wild type) (Human immunodeficiency virus type 1 group M subtype B, UniProt P04585); experiment: Reverse transcriptase (RT) enzymatic assay (IC50), PicoGreen fluorescence, wild type; type: biochemical; details: RT enzymatic assay, wild type; read-out: IC50 WT
T2 construct: The reverse transcriptase (RT) enzyme assay has been adapted to a 96-well microtiter plate format
Experimental: as §1
The enzymatic assay employed is described as follows: The reverse transcriptase (RT) enzyme assay has been adapted to a 96-well microtiter plate format and uses PicoGreen™ as a fluorescent intercalator. More explicitly, the HIV-1 RT enzyme was thawed and appropriately diluted into Tris/HCl 50 mM pH 7.8 containing NaCl 60 mM, MgCl2∘6H2O 2 mM, DTT 6 mM, GSH 2 mM and 0.02% w/v Chaps to give ≈10 nM enzyme. […] The plate was pre-incubated for 15 minutes at room temperature before proceeding to the next step. […] Then the enzymatic reaction was initiated by addition of 20 μL of substrate solution. […] After addition of the substrate cocktail, the plate was covered with a plastic seal and incubated for 50 minutes at 37° C. in a dry incubator. The reaction was then quenched by addition of 5 μL of EDTA 0.5 M. The plate was shaken for 30 seconds at medium speed and incubated for 5 minutes at room temperature. Then 160 μL of PicoGreen™ 1:400 dilution from commercial stock (diluted in Tris 20 mM pH 7.5 with EDTA 1 mM) was added and the plate was shaken for 30 seconds and incubated for 10 minutes at room temperature. […] Each row contained at its extremities a blank and a control well.
as §2

| Compound | IC50 [1] | EC50 [2] | EC50 [3] | IC50 [4] |
| --- | --- | --- | --- | --- |
| Cc1ccc(-n2nnnc2SCC(=O)Nc2ccc(C(=O)O)cc2Cl)c(Cl)c1 [Entry 503] | > 100 nM | < 50 nM | > 100 nM | < 50 nM |
| Cc1ccc(-n2nnnc2SCC(=O)Nc2ccc(C(N)=O)cc2Cl)c(Cl)c1 [Entry 504] | > 100 nM | < 50 nM | < 50 nM | < 50 nM |
| Cc1ccc(-n2nnnc2SCC(=O)Nc2ccc(C(=O)O)cc2Br)c(Cl)c1 [Entry 505] | > 100 nM | < 50 nM | > 100 nM | < 50 nM |
| Cc1ccc(-n2nnnc2SCC(=O)Nc2ccc(C(=O)O)cc2[N+](=O)[O-])c(Cl)c1 [Entry 507] | > 100 nM | < 50 nM | > 100 nM | < 50 nM |
| Cc1ccc(-n2nnnc2SCC(=O)Nc2ccc(C(N)=O)cc2[N+](=O)[O-])c(Cl)c1 [Entry 508] | 50 to 100 nM | < 50 nM | < 50 nM | < 50 nM |
| Cc1ccc(-n2nnnc2SCC(=O)Nc2ccc(S(C)(=O)=O)cc2Cl)c(Cl)c1 [Entry 509] | > 100 nM | < 50 nM | > 100 nM | < 50 nM |
| Cc1ccc(-n2nnnc2SCC(=O)Nc2ccc(-c3ccccc3)cc2Cl)c(Cl)c1 [Entry 510] | 50 to 100 nM | < 50 nM | > 100 nM | < 50 nM |
| Cc1ccc(-n2nnnc2SCC(=O)Nc2ccc(-c3ccccc3)cc2C)c(Cl)c1 [Entry 511] | > 100 nM | < 50 nM | > 100 nM | < 50 nM |
| Cc1ccc(-n2nnnc2SCC(=O)Nc2ccc(-c3cccnc3)cc2Cl)c(Cl)c1 [Entry 512] | > 100 nM | < 50 nM | > 100 nM | < 50 nM |
| CC(C)(C)c1ccc(-n2nnnc2SCC(=O)Nc2ccc(CCC(=O)O)cc2Cl)c(Cl)c1 [Entry 601] | > 100 nM | < 50 nM | > 100 nM | < 50 nM |
| Cc1ccc(-n2nnnc2SCC(=O)Nc2cccnc2Cl)c(Cl)c1 [Entry 803] | > 100 nM | < 50 nM | > 100 nM | – |

Reference: patent publication US7642277B2, “Non-nucleoside reverse transcriptase inhibitors” (Boehringer Ingelheim International GmbH, priority 2002, dated 2010)
